Laboratory results from US12090147B2, “Combination therapy with 2-(4-chlorophenyl)-N-((2-(2,6-dioxopiperidin-3-yl)-1-oxoisoindolin-5-yl)methyl)-2,2-difluoroacetamide” (Celgene Corporation, priority 2019, dated 2024).

How the values were obtained:
[1] = tested on: bone marrow mononuclear cells (BMMC) from primary AML patients; experiment: Secreted IL-1β in primary bone marrow mononuclear cells ex vivo; type: cell-based, human
Description: For cytokine assays on primary AML and healthy bone marrow cells, cells were seeded at 0.2 million in 150 μL media per well of ultra-low attachment 96-well plate in duplicates. Cell culture media was collected 24 and 48 hours post-treatment with Compound 1 and/or LPS. Cells were pelleted, fixed in 1.6% PFA and froze down for flow cytometry analysis.
Normal PBMCs were purchased from AllCells (Cat No. PB006F). Primary AML BMMC in were purchased from Conversant (SKU ID: BBM1000-E1110036458110215SH) or Fidelis Research (AML55, AML57, AML73, AML74, AML76, AML79, AML80, AML81, AML84, AML95). Bone marrow from health donor was purchased from StemCell Technologies (Cat No. 70001.2).
Normal PBMCs were cultured in RPMI-1640 (ATCC Cat No. 30-2001) containing 20% fetal bovine serum (Corning Cat No. 35-010-CV). […]
IL-1α (Meso Scale Disgnostics, Cat No. K151RBD), IL-1β (Meso Scale Disgnostics, Cat No. K151QPD), IL-1RA (Meso Scale Disgnostics, Cat No. K151WTD), IL-18 (Meso Scale Disgnostics, Cat No. K151VJK), TNFa (Meso Scale Disgnostics, Cat No. K151QWD), VEGF Meso Scale Disgnostics, Cat No. K151RHD) levels were measured by (Meso Scale Disgnostics assay kits following manufacturer's instructions. Measurements were made on a MESO™ SECTOR S 600 plate reader (Meso Scale Disgnostics). […]

[2] = tested on: ML-2 parental, caspase 1 and caspase 8 knock out cells; experiment: IL-1β in CRISPR/Cas9 caspase 1 or caspase 8 knock out cells (lysate and supernatant); type: cell-based, human; settings: 1 μM Compound 1
Description: To further confirm if caspase 8 is necessary for Compound 1 induced IL-1β upregulation and/or release, knock out studies were performed. Caspase 1 or caspase 8 was knocked out by CRISPR/Cas9 in ML-2 cells, and the effect of Compound 1 on intracellular and secreted IL-1β levels was investigated. Parental, caspase 1 and caspase 8 knock out cells were treated with or without 1 μM Compound 1. IL-1β levels were analyzed 48 and 72 hours post-compound treatment in cell lysate and culture supernatant.

O=C1CCC(N2Cc3cc(CNC(=O)C(F)(F)c4ccc(Cl)cc4)ccc3C2=O)C(=O)N1 (centres unmarked) [Compound 1, 2-(4-chlorophenyl)-N-((2-(2,6-dioxopiperidin-3-yl)-1-oxoisoindolin-5-yl)methyl)-2,2-difluoroacetamide]
IL-1β in cell culture supernatant, FAB M0/M1/M2 AML BMMC ([1]; four M0/M1/M2 samples): not able to induce IL-1β
IL-1β in cell culture supernatant, FAB M4/M5 AML BMMC ([1]; two out of five M4/M5 samples, 24 and 48 hours post treatment): marked induction of IL-1β
Induction of IL-1β release ([2]; caspase 8 knock out ML-2 cells): compromised
Pro-IL-1β upregulation ([2]; caspase 8 knock out ML-2 cells): remains intact
Pro-IL-1β upregulation and secreted IL-1β ([2]; parental and caspase 1 knock out ML-2 cells, 48 and 72 hours): Upregulation of pro-IL-13 and increased secreted IL-1β were evident
